This note sets out measurements from ChEMBL document CHEMBL4152390, “Discovery of the First-in-Class Dual Histone Deacetylase-Proteasome Inhibitor” (J Med Chem, 2018).

The test has as its target Proteasome Macropain subunit (Homo sapiens) (UniProt P49721). Briefly: Inhibition of trypsin-like activity of 20S proteasome in human SEM cells at 4 nM to 25 uM using Z-LRR-aminoluciferin as substrate after 2 hrs by proteasome-Glo assay. In kind it is cell-based.

Activity calls are given as the source filed them. The calls are words filed in the database; no cut-off is given here.

Sequence of Proteasome Macropain subunit (Homo sapiens) (P49721 whole entry): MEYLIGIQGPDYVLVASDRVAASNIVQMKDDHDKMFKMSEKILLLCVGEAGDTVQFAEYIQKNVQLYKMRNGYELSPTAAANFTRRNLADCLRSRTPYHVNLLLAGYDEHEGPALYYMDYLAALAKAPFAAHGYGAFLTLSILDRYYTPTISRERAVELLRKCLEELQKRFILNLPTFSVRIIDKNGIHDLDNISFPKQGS

On to `C[C@H](NC(=O)[C@H](CC(=O)NCC(C)(C)C)NC(=O)c1ccc(C(=O)NO)cc1)C(=O)NCc1ccccc1`, for which the inhibition entry was “inactive”.
